Key:
Assay in all cases: KINOMEscan competition binding
[1] = target: LTK (human) (UniProt P29376)
[2] = target: PIM2 (human) (UniProt Q9P1W9)
[3] = target: PIP5K1A (human) (UniProt Q99755)
[4] = target: WEE1 (human) (UniProt P30291)
[5] = target: DAPK3 (human) (UniProt O43293)
[6] = target: MAP3K6 (human) (UniProt O95382)
[7] = target: CSNK2A2 (human) (UniProt P19784)
[8] = target: ROS1 (human) (UniProt P08922)
[9] = test system: EGFR (human), P00533 [T790M/L858R]
[10] = target: EPHB3 (human) (UniProt P54753)
[11] = target: CLK1 (human) (UniProt P49759)
[12] = test system: KIT (human), P10721 [L576P]
[13] = target: TTK (human) (UniProt P33981)
[14] = target: MAPK1 (human) (UniProt P28482)
[15] = test system: PIK3CA (human), P42336 [H1047L]
[16] = target: PAK2 (human) (UniProt Q13177)
[17] = target: FES (human) (UniProt P07332)
[18] = target: STK32C (human) (UniProt Q86UX6)
[19] = target: SRMS (human) (UniProt Q9H3Y6)
[20] = target: RPS6KA4 KD2 (human) (UniProt O75676)
[21] = target: RET (human) (UniProt P07949)
[22] = target: STK25 (human) (UniProt O00506)
[23] = target: DDR1 (human) (UniProt Q08345)
[24] = test system: KIT (human), P10721 [V559D]
[25] = target: AAK1 (human) (UniProt Q2M2I8)
[26] = target: IRAK3 (human) (UniProt Q9Y616)
[27] = target: RPS6KA4 KD1 (human) (UniProt O75676)
[28] = target: NTRK1 (human) (UniProt P04629)
[29] = target: RPS6KA5 KD2 (human) (UniProt O75582)
[30] = target: TYK2 JH1 catalytic (human) (UniProt P29597)
[31] = target: CSNK1A1L (human) (UniProt Q8N752)
[32] = target: TLK2 (human) (UniProt Q86UE8)
[33] = target: BMX (human) (UniProt P51813)
[34] = target: TGFBR2 (human) (UniProt P37173)
[35] = target: ANKK1 (human) (UniProt Q8NFD2)
[36] = target: STK38L (human) (UniProt Q9Y2H1)
[37] = target: CDK18 (human) (UniProt Q07002)
[38] = target: CDK8 (human) (UniProt P49336)
[39] = target: CDK5 (human) (UniProt Q00535)
[40] = target: CSNK1D (human) (UniProt P48730)
[41] = target: ACVR2B (human) (UniProt Q13705)
[42] = target: SBK1 (human) (UniProt Q52WX2)

AAK1 (human), sequence (Q2M2I8 whole entry, looked up): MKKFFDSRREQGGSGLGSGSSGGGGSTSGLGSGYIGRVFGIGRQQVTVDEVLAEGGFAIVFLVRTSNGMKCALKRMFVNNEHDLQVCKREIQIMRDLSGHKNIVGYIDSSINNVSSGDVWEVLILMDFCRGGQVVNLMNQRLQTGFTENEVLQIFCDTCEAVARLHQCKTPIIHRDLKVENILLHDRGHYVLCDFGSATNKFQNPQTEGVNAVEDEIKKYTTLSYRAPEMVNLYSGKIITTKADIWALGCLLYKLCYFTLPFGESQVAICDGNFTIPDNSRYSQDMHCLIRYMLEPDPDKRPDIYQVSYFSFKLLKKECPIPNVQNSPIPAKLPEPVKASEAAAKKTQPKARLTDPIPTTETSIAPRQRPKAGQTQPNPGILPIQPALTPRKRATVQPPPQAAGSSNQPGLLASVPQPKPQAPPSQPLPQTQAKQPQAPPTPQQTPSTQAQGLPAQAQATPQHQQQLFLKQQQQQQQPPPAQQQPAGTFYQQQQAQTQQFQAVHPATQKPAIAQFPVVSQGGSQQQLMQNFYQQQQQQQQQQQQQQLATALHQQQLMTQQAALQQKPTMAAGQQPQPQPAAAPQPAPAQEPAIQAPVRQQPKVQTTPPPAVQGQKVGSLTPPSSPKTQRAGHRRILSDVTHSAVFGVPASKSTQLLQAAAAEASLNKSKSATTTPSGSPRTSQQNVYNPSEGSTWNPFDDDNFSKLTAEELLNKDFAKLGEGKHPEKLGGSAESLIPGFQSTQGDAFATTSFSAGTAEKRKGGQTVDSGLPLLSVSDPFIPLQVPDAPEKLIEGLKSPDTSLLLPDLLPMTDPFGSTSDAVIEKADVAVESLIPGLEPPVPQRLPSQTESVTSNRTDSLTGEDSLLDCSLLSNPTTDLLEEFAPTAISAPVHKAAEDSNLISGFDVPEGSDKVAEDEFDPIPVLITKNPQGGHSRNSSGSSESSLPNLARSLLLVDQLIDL
CSNK1A1L (human), sequence (Q8N752 whole entry, looked up): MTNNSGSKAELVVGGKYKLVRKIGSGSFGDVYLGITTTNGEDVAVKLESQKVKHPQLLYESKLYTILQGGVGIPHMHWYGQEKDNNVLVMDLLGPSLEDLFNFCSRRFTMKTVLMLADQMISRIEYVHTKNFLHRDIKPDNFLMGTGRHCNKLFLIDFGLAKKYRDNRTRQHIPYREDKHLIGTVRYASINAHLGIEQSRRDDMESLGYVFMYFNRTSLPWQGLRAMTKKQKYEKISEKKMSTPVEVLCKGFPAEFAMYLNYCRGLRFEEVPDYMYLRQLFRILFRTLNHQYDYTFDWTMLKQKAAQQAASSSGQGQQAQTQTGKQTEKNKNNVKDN
DDR1 (human), sequence (Q08345 whole entry, looked up): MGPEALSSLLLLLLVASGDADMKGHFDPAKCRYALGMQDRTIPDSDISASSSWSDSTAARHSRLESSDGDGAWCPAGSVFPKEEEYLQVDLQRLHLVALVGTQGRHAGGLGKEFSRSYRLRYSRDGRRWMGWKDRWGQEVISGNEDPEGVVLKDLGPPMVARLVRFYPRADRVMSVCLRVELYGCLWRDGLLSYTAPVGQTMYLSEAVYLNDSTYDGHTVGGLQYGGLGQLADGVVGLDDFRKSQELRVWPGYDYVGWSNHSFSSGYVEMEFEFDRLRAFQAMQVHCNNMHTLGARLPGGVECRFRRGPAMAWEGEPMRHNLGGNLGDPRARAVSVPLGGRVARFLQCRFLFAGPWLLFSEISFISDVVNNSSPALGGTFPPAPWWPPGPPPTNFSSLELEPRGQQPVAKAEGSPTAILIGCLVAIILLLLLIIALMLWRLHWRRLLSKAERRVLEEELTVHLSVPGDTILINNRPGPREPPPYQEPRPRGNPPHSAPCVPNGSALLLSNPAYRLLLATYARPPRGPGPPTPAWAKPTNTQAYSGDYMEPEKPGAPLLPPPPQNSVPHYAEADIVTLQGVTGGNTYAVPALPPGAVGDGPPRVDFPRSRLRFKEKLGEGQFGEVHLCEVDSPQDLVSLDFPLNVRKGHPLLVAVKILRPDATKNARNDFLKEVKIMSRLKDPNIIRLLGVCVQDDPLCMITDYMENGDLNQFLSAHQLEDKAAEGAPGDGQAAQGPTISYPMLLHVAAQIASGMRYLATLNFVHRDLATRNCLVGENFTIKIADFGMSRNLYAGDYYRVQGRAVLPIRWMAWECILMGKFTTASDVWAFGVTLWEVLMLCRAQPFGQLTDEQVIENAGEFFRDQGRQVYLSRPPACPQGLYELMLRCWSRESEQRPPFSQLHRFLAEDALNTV
TTK (human), sequence (P33981 whole entry, looked up): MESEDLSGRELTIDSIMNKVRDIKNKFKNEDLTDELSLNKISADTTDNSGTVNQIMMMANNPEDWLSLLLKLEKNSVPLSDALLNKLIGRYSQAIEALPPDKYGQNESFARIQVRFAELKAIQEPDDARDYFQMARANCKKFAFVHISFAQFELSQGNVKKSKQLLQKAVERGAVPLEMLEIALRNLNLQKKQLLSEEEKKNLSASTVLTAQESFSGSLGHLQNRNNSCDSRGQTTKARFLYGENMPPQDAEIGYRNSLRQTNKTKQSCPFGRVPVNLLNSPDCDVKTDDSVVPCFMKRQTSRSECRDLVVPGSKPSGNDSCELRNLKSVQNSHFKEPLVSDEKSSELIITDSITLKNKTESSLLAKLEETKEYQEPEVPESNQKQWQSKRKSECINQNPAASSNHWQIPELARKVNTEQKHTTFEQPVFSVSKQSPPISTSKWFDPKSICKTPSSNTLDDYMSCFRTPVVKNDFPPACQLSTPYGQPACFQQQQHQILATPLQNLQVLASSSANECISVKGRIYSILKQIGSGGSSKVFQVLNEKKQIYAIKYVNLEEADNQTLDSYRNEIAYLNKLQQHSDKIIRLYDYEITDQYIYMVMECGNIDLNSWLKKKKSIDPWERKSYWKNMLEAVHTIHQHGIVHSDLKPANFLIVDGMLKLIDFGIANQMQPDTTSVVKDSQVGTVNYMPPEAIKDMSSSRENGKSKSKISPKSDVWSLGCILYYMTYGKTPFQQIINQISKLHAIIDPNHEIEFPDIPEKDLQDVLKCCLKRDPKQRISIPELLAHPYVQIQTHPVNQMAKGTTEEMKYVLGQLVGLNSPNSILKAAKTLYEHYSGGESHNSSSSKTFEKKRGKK
MAP3K6 (human), sequence (O95382 whole entry, looked up): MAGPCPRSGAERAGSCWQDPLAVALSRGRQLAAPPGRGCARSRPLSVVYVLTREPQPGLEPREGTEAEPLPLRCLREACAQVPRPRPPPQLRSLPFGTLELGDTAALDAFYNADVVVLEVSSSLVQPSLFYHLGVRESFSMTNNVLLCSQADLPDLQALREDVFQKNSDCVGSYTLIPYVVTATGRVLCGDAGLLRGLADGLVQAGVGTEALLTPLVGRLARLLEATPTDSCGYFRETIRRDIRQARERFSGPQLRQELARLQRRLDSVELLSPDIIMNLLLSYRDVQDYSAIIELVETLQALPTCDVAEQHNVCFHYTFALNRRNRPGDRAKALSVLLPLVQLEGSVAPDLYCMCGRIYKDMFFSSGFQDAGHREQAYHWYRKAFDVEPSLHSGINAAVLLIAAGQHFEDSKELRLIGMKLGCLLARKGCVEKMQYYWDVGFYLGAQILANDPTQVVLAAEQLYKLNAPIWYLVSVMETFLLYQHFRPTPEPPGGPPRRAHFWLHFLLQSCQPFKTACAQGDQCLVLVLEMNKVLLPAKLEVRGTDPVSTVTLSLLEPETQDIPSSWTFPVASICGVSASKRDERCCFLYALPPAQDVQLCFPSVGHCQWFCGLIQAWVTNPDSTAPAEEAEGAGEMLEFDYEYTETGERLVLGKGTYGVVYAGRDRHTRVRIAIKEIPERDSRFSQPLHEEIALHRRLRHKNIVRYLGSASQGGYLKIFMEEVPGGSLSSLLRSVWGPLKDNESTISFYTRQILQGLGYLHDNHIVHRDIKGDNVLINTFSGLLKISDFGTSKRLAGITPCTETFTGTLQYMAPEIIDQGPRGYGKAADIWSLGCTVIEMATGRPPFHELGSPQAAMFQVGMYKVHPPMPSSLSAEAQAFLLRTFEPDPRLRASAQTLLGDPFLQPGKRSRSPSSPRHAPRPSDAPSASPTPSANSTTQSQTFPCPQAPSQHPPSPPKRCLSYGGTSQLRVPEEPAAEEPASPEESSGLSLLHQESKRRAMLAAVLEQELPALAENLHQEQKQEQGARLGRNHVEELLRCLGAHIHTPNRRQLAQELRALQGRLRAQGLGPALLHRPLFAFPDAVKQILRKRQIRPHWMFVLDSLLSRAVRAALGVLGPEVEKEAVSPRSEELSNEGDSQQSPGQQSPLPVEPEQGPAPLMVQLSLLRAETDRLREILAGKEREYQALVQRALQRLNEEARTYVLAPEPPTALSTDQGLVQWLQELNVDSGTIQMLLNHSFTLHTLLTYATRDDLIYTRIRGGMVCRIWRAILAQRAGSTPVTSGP
STK32C (human), sequence (Q86UX6 whole entry, looked up): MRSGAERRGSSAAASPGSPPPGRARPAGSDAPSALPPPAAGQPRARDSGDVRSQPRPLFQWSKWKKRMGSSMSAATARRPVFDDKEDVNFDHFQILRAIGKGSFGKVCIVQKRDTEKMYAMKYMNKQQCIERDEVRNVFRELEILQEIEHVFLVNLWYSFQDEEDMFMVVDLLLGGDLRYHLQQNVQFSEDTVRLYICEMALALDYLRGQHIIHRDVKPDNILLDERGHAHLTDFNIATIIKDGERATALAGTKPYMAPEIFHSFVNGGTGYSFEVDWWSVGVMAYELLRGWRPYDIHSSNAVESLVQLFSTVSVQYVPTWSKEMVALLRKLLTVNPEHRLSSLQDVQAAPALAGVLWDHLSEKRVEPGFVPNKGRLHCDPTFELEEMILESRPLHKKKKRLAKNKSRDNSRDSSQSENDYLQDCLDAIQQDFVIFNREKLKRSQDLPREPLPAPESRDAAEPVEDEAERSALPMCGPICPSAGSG

CN(C)C/C=C/C(=O)Nc1cccc(C(=O)Nc2ccc(Nc3nccc(-c4c(-c5ccccc5)nn5ccccc45)n3)cc2)c1
kinase still bound, per cent of control ([1]; compound 1.0 µM): 83%
kinase still bound, per cent of control ([2]; compound 1.0 µM): 100%
kinase still bound, per cent of control ([3]; compound 1.0 µM): 67%
kinase still bound, per cent of control ([4]; compound 1.0 µM): 100%
kinase still bound, per cent of control ([5]; compound 1.0 µM): 93%
kinase still bound, per cent of control ([6]; compound 1.0 µM): 100%
kinase still bound, per cent of control ([7]; compound 1.0 µM): 100%
kinase still bound, per cent of control ([8]; compound 1.0 µM): 100%
kinase still bound, per cent of control ([9]; compound 1.0 µM): 36%
kinase still bound, per cent of control ([10]; compound 1.0 µM): 86%
kinase still bound, per cent of control ([11]; compound 1.0 µM): 95%
kinase still bound, per cent of control ([12]; compound 1.0 µM): 3%
kinase still bound, per cent of control ([13]; compound 1.0 µM): 94%
kinase still bound, per cent of control ([14]; compound 1.0 µM): 100%
kinase still bound, per cent of control ([15]; compound 1.0 µM): 77%
kinase still bound, per cent of control ([16]; compound 1.0 µM): 88%
kinase still bound, per cent of control ([17]; compound 1.0 µM): 100%
kinase still bound, per cent of control ([18]; compound 1.0 µM): 99%
kinase still bound, per cent of control ([19]; compound 1.0 µM): 87%
kinase still bound, per cent of control ([20]; compound 1.0 µM): 91%
kinase still bound, per cent of control ([21]; compound 1.0 µM): 8.3%
kinase still bound, per cent of control ([22]; compound 1.0 µM): 100%
kinase still bound, per cent of control ([23]; compound 1.0 µM): 0%
kinase still bound, per cent of control ([24]; compound 1.0 µM): 0.6%
kinase still bound, per cent of control ([25]; compound 1.0 µM): 100%
kinase still bound, per cent of control ([26]; compound 1.0 µM): 64%
kinase still bound, per cent of control ([27]; compound 1.0 µM): 88%
kinase still bound, per cent of control ([28]; compound 1.0 µM): 30%
kinase still bound, per cent of control ([29]; compound 1.0 µM): 97%
kinase still bound, per cent of control ([30]; compound 1.0 µM): 76%
kinase still bound, per cent of control ([31]; compound 1.0 µM): 5.5%
kinase still bound, per cent of control ([32]; compound 1.0 µM): 100%
kinase still bound, per cent of control ([33]; compound 1.0 µM): 76%
kinase still bound, per cent of control ([34]; compound 1.0 µM): 10%
kinase still bound, per cent of control ([35]; compound 1.0 µM): 73%
kinase still bound, per cent of control ([36]; compound 1.0 µM): 100%
kinase still bound, per cent of control ([37]; compound 1.0 µM): 95%
kinase still bound, per cent of control ([38]; compound 1.0 µM): 100%
kinase still bound, per cent of control ([39]; compound 1.0 µM): 100%
kinase still bound, per cent of control ([40]; compound 1.0 µM): 3.1%
kinase still bound, per cent of control ([41]; compound 1.0 µM): 9.6%
kinase still bound, per cent of control ([42]; compound 1.0 µM): 92%

Cc1ccc(NC(=O)c2ccc(NC(=O)/C=C/CN(C)C)cc2)cc1Nc1nccc(-c2cccnc2)n1
kinase still bound, per cent of control ([1]; compound 10.0 µM): 100%
kinase still bound, per cent of control ([2]; compound 10.0 µM): 100%
kinase still bound, per cent of control ([3]; compound 10.0 µM): 8%
kinase still bound, per cent of control ([4]; compound 10.0 µM): 100%
kinase still bound, per cent of control ([5]; compound 10.0 µM): 75%
kinase still bound, per cent of control ([6]; compound 10.0 µM): 100%
kinase still bound, per cent of control ([7]; compound 10.0 µM): 21%
kinase still bound, per cent of control ([8]; compound 10.0 µM): 100%
kinase still bound, per cent of control ([9]; compound 10.0 µM): 100%
kinase still bound, per cent of control ([10]; compound 10.0 µM): 100%
kinase still bound, per cent of control ([11]; compound 10.0 µM): 24%
kinase still bound, per cent of control ([12]; compound 10.0 µM): 0%
kinase still bound, per cent of control ([13]; compound 10.0 µM): 83%
kinase still bound, per cent of control ([14]; compound 10.0 µM): 82%
kinase still bound, per cent of control ([15]; compound 10.0 µM): 89%
kinase still bound, per cent of control ([16]; compound 10.0 µM): 80%
kinase still bound, per cent of control ([17]; compound 10.0 µM): 100%
kinase still bound, per cent of control ([18]; compound 10.0 µM): 80%
kinase still bound, per cent of control ([19]; compound 10.0 µM): 71%
kinase still bound, per cent of control ([20]; compound 10.0 µM): 64%
kinase still bound, per cent of control ([21]; compound 10.0 µM): 99%
kinase still bound, per cent of control ([22]; compound 10.0 µM): 100%
kinase still bound, per cent of control ([23]; compound 10.0 µM): 0.15%
kinase still bound, per cent of control ([24]; compound 10.0 µM): 0%
kinase still bound, per cent of control ([25]; compound 10.0 µM): 63%
kinase still bound, per cent of control ([26]; compound 10.0 µM): 28%
kinase still bound, per cent of control ([27]; compound 10.0 µM): 100%
kinase still bound, per cent of control ([28]; compound 10.0 µM): 95%
kinase still bound, per cent of control ([29]; compound 10.0 µM): 100%
kinase still bound, per cent of control ([30]; compound 10.0 µM): 92%
kinase still bound, per cent of control ([31]; compound 10.0 µM): 100%
kinase still bound, per cent of control ([32]; compound 10.0 µM): 100%
kinase still bound, per cent of control ([33]; compound 10.0 µM): 100%
kinase still bound, per cent of control ([34]; compound 10.0 µM): 100%
kinase still bound, per cent of control ([35]; compound 10.0 µM): 13%
kinase still bound, per cent of control ([36]; compound 10.0 µM): 100%
kinase still bound, per cent of control ([37]; compound 10.0 µM): 85%
kinase still bound, per cent of control ([38]; compound 10.0 µM): 93%
kinase still bound, per cent of control ([39]; compound 10.0 µM): 100%
kinase still bound, per cent of control ([40]; compound 10.0 µM): 54%
kinase still bound, per cent of control ([41]; compound 10.0 µM): 84%
kinase still bound, per cent of control ([42]; compound 10.0 µM): 77%

From the kinase profiling compilation of Christmann-Franck et al. (2016)
